Data from ChEMBL document CHEMBL5625164, “Design, synthesis, and evaluation of new anti-inflammatory natural products amide derivatives endowed with anti-blood cancer activity towards development of potential multifunctional agents against hematological cancers” (Eur J Med Chem, 2023).
Activity calls are given as the source filed them. The calls are words filed in the database; no cut-off is given here.

Key:
BV-2 [1] = test: Anti-inflammatory activity against mouse BV-2 cells assessed as inhibition of LPS-induced PGE2 production pretreated for 2 hrs followed stimulated with LPS for 22 hrs at 10 uM relative to control; type: functional; conditions: time 24 hrs
CCRF-CEM [2] = test: Anticancer activity against human CCRF-CEM cells assessed as growth inhibition at 10 uM measured after 48 hrs by SRB assay relative to control; type: functional; conditions: read-out: GI
BV-2 [3] = test: Anti-inflammatory activity against mouse BV-2 cells assessed as inhibition of LPS-induced NO production pretreated for 2 hrs followed stimulated with LPS for 22 hrs by Griess reaction assay; type: functional, cell-based
K562 [4] = test: Anticancer activity against human K562 cells assessed as growth inhibition at 10 uM measured after 48 hrs by SRB assay relative to control; type: functional; conditions: read-out: GI
SR [5] = test: Anticancer activity against human SR cells assessed as growth inhibition at 10 uM measured after 48 hrs by SRB assay relative to control; type: functional; conditions: read-out: GI
BV-2 [6] = test: Anti-inflammatory activity against mouse BV-2 cells assessed as inhibition of LPS-induced TNFalpha production pretreated for 2 hrs followed stimulated with LPS for 22 hrs at 10 uM relative to control; type: functional; conditions: time 24 hrs
BV-2 [7] = test: Anti-inflammatory activity against mouse BV-2 cells assessed as inhibition of LPS-induced TNFalpha production pretreated for 2 hrs followed stimulated with LPS for 22 hrs; type: functional, cell-based
RPMI-8226 [8] = test: Anticancer activity against human RPMI-8226 cells assessed as growth inhibition at 10 uM measured after 48 hrs by SRB assay relative to control; type: functional; conditions: read-out: GI
MOLT-4 [9] = test: Anticancer activity against human MOLT-4 cells assessed as growth inhibition at 10 uM measured after 48 hrs by SRB assay relative to control; type: functional; conditions: read-out: GI
HL-60 [10] = test: Anticancer activity against human HL-60 cells assessed as growth inhibition at 10 uM measured after 48 hrs by SRB assay relative to control; type: functional; conditions: for inhibition of growth at 10 µM: read-out: GI
BV-2 [11] = test: Anti-inflammatory activity against mouse BV-2 cells assessed as inhibition of LPS-induced PGE2 production pretreated for 2 hrs followed stimulated with LPS for 22 hrs; type: functional, cell-based
[12] = Cytotoxicity against mouse RAW264.7 cells assessed as macrophage viability at 10 uM relative to control; type: toxicity, cell-based; conditions: read-out: Activity
BV-2 [13] = test: Anti-inflammatory activity against mouse BV-2 cells assessed as inhibition of LPS-induced NO production at 10 uM pretreated for 2 hrs followed stimulated with LPS for 22 hrs by Griess reaction assay relative to control; type: functional; conditions: time 24 hrs
BV-2 [14] = test: Anti-inflammatory activity against mouse BV-2 cells assessed as inhibition of LPS-induced NO production at 40 uM pretreated for 2 hrs followed stimulated with LPS for 22 hrs by Griess reaction assay relative to control; type: functional; conditions: time 24 hrs
[15] = Cytotoxicity against mouse RAW264.7 cells assessed as macrophage viability at 40 uM relative to control; type: toxicity, cell-based; conditions: read-out: Activity
SR [16] = test: Anticancer activity against human SR cells assessed as growth inhibition measured after 48 hrs by SRB assay relative to control; type: functional
K562 [17] = test: Anticancer activity against human K562 cells assessed as growth inhibition measured after 48 hrs by SRB assay relative to control; type: functional
CCRF-CEM [18] = test: Anticancer activity against human CCRF-CEM cells assessed as growth inhibition measured after 48 hrs by SRB assay relative to control; type: functional
MOLT-4 [19] = test: Anticancer activity against human MOLT-4 cells assessed as growth inhibition measured after 48 hrs by SRB assay relative to control; type: functional
RPMI-8226 [20] = test: Anticancer activity against human RPMI-8226 cells assessed as growth inhibition measured after 48 hrs by SRB assay relative to control; type: functional
HL-60 [21] = test: Anticancer activity against human HL-60 cells assessed as growth inhibition measured after 48 hrs by SRB assay relative to control; type: functional

COc1cc2c(c(OC)c1OC)C(=O)CC(c1cccc(C(=O)Nc3ccc(Br)cc3)c1)O2 (racemic)
inhibition at 10 µM (BV-2 [1]): 62.6%
inhibition of growth at 10 µM (CCRF-CEM [2]): 90.7%
IC50 (BV-2 [3]): 13.1 µM
inhibition of growth at 10 µM (K562 [4]): 93.8%
inhibition of growth at 10 µM (SR [5]): 77.8%
inhibition at 10 µM (BV-2 [6]): 24.9%
IC50 (BV-2 [7]): 16.8 µM
inhibition of growth at 10 µM (RPMI-8226 [8]): 85.4%
inhibition of growth at 10 µM (MOLT-4 [9]): 101%
inhibition of growth at 10 µM (HL-60 [10]): 86.3%
IC50 (BV-2 [11]): 10.3 µM
viability at 10 µM [12]: 113%
inhibition at 10 µM (BV-2 [13]): 41.2%

COc1cc2c(c(OC)c1OC)C(=O)CC(c1cccc(C(=O)Nc3cccc(Br)c3)c1)O2 (racemic)
inhibition at 10 µM (BV-2 [1]): 19.8%
inhibition of growth at 10 µM (CCRF-CEM [2]): 55%
IC50 (BV-2 [3]): 11.7 µM
inhibition of growth at 10 µM (K562 [4]): 50.2%
inhibition at 10 µM (BV-2 [6]): 39.5%
IC50 (BV-2 [7]): 15.5 µM
inhibition of growth at 10 µM (RPMI-8226 [8]): 53.2%
inhibition of growth at 10 µM (MOLT-4 [9]): 51.2%
inhibition of growth at 10 µM (HL-60 [10]): 8.2%
IC50 (BV-2 [11]): 10.9 µM
viability at 10 µM [12]: 97.9%
inhibition at 10 µM (BV-2 [13]): 46.3%

CC(=N)NCCCC[C@H](N)C(=O)O [L-NIL]
inhibition at 40 µM (BV-2 [14]): 54.3%
viability at 40 µM [15]: 106%

Cc1ccc(NC(=O)c2ccc(CN3CCN(C)CC3)cc2)cc1Nc1nccc(-c2cccnc2)n1 [IMATINIB]
GI50 (SR [16]): 7.24 µM
inhibition of growth at 10 µM (CCRF-CEM [2]): 6.6%
GI50 (K562 [17]): 0.05 µM
GI50 (CCRF-CEM [18]): 17 µM
GI50 (MOLT-4 [19]): 5.13 µM
GI50 (RPMI-8226 [20]): 6.17 µM
inhibition of growth at 10 µM (SR [5]): 14.6%
GI50 (HL-60 [21]): 13.5 µM
inhibition of growth at 10 µM (RPMI-8226 [8]): 12.6%
inhibition of growth at 10 µM (MOLT-4 [9]): 18%
growth inhibition (GI) (HL-60 [10]): inactive
